Results as given in patent EP0005055A2, “6,11-Dihydrodibenzo-thiepin-11-ones and their S-oxides, methods for their preparation and pharmaceutical compositions containing them” (SYNTEX (U.S.A.) INC., priority 1978, dated 1979).

Columns and labels:
[1] = Mouse Acute Oral Toxicity (LD50); details: in vivo, oral by stomach tube, single dose, mice observed for deaths over 14 days
Experimental: B) Mouse Acute Oral Toxicity (LD50)
Protocol: The test material is suspended in an aqueous vehicle containing carboxymethyl cellulose. A volume of 10 ml/kg body weight is used for each dose. The test material is given orally by stomach tube to 24 male Swiss-Webster mice, 6 per group, on the first day of the test, using doses of 250, 500, 1000 and 2000 mg./kg. body weight of test compound. Another group of 6 mice, receiving the vehicle only, serve as the control. The mice are observed for deaths over a 14-day period.

Albino rats = assay: Heat Induced Dermal Trauma Assay; type: in vivo; details: topical in ethanol, treatment 0 post burn, skin disc weighed 3 hours later, 6 rats, control 500.7±13.6
Experimental: A) Heat Induced Dermal Trauma Assay ,
Test Animal: Albino rats, 120-140 g.
Procedure: The ventral area of the rats is shaved and depilated with a commercially available depilatory on the afternoon of the day prior to trauma. (The depilatory is applied for 15 minutes and then removed by washing with water.) The following day, a 25 mm diameter circle is traced on the abdomen beneath the sternum with a colored pen. A brass stamp of the same size, through which hot water (53°C) is circulated, is firmly applied to the center of the colored outline for 45 seconds while the rats are lightly anesthetized with ether. The test materials in ethanol are administered topically to the tramatized area immediately after withdrawing the stamp. The animals are sacrificed 3 hours later, at which time the ventral skin is removed and a piece of skin form the center of the marked area is punched out with a No. 10 cork bore and weighed.
End Point: The weight in mg of the inflammed piece of skin which is removed from the marked area with the cork bore.

Row | SMILES | LD50 at 336 h [1] [mg/kg] | Mean Disc. Wt. mg.± S.E. (Albino rats; dose 0.006 mg.) [mg] | Mean Disc. Wt. mg.± S.E. (Albino rats; dose 0.025 mg.) [mg] | Mean Disc. Wt. mg.± S.E. (Albino rats; dose 0.1 mg.) [mg] | Mean Disc. Wt. mg.± S.E. (Albino rats; dose 0.4 mg.) [mg]
1 | O=C(O)Cc1ccc2c(c1)[S+]([O-])Cc1ccccc1C2=O (stereo not shown) [6,11-dihydrodibenzo-[b.e]-thiepin-11-one-3-acetic S-oxide] | > 2000 |  |  |  | 
2 | O=C(O)Cc1ccc2c(c1)SCc1cc(Cl)ccc1C2=O [8-chloro-6,11-dihydrodibenzo-[b.e.]-thiepin-11-one-3-acetic acid] | ~300 | 296.8 ± 21.8 | 218.8 ± 6.5 | 201.4 ± 12.0 | 147.2 ± 10.2
3 | COc1ccc2c(c1)CSc1cc(CC(=O)O)ccc1C2=O [8-methoxy-6,11-dihydro-dibenzo-[b.e.]-thiepin-11-one-3-acetic acid] |  | 279.6 ± 13.17 | 241.6 ± 7.56 | 197.5 ± 25.07 | 177.9 ± 18.98
